Values of other authors, collected in patent US6864048B2, “Factorial chemical libraries” (Affymetrix, Inc., priority 1993, dated 2005).

Target: antibody
Settings: binding to the antibody; peptide identified by recursive retrosynthesis of a hexapeptide library

Kd: 30 nM
Substance: DVPYDA
